Data published in ChEMBL document CHEMBL2176943, “Discovery of inhibitors to block interactions of HIV-1 integrase with human LEDGF/p75 via structure-based virtual screening and bioassays” (J Med Chem, 2012).
Activity calls are given as the source filed them. No cut-off for these calls is given here.

Experiments:
[1] = target: Human immunodeficiency virus type 1 integrase (Human immunodeficiency virus 1, UniProt Q7ZJM1); experiment: Inhibition of HIV1 His6-tagged integrase-human GST tagged LEDGF/p75 (373-442 residues) interaction after 30 mins by AlphaScreen assay
[2] = target: Human immunodeficiency virus type 1 integrase (Human immunodeficiency virus 1) (UniProt Q7ZJM1); experiment: Inhibition of nuclear translocation of HIV1 EGFP-labeled integrase expressed in human 293T cells at 86.73 uM after 24 hrs by microscopic analysis; type: cell-based
[3] = Cytotoxicity against human C8166 cells after 3 days by MTT assay; type: cell-based
[4] = Therapeutic index, ratio of CC50 for human C8166 cells to EC50 for HIV-1 3B infected in C8166 cells; type: cell-based; conditions: read-out: Ratio CC50/EC50
[5] = test system: Human immunodeficiency virus 1; experiment: Antiviral activity against HIV-1 3B infected in C8166 cells assessed as virus-induced cytopathic effect measuring […] formation after 3 days by microscopy; type: functional, organism-based; conditions: Human immunodeficiency virus 1, 3B, C8166, 72 h
[6] = target: Human immunodeficiency virus type 1 integrase (Human immunodeficiency virus 1) (UniProt Q7ZJM1); experiment: Inhibition of nuclear translocation of HIV1 EGFP-labeled integrase expressed in human 293T cells at 36.40 uM after 24 hrs by microscopic analysis; type: cell-based
[7] = target: Human immunodeficiency virus type 1 integrase (Human immunodeficiency virus 1) (UniProt Q7ZJM1); experiment: Inhibition of nuclear translocation of HIV1 EGFP-labeled integrase expressed in human 293T cells at 36 uM after 24 hrs by microscopic analysis; type: cell-based
[8] = target: Human immunodeficiency virus type 1 integrase (Human immunodeficiency virus 1) (UniProt Q7ZJM1); experiment: Inhibition of nuclear translocation of HIV1 EGFP-labeled integrase expressed in human 293T cells at 83.83 uM after 24 hrs by microscopic analysis; type: cell-based

Row | IC50 [1] | Structure (SMILES) | also measured
1 | 1750 nM | O=C(/C=C/c1cc(F)cc(F)c1)c1ccc(O)cc1O | 
2 | 3840 nM | O=C(NCc1cccc([N+](=O)[O-])c1)c1ccc(OCc2ccccc2)cc1O | 
3 | 1140 nM | CC1(C)CC[C@]2(C(=O)O)CC[C@]3(C)C(=CC[C@@H]4[C@@]5(C)CC[C@H](OCc6cccc(C(=O)O)c6)C(C)(C)[C@@H]5CC[C@]43C)[C@@H]2C1 | 
4 | 1700 nM | O=C(/C=C/c1cccc(O)c1O)c1ccc(O)cc1O [2,3,2',4'-TETRAHYDROXYCHALCONE] | 
5 | 1260 nM | COc1cc(CC(NC(=O)CCCC[C@]23CCC(C)(C)C[C@H]2C2=CC[C@@H]4[C@@]5(C)CC[C@H](O)C(C)(C)[C@@H]5CC[C@@]4(C)[C@]2(C)CC3)C(=O)O)cc(OC)c1 (mixture of isomers) | 
6 | 260 nM | O=C(/C=C/c1cccc(O)c1O)c1c(O)cc(O)cc1O | inhibition [2]: Active; CC50 at 72 h [3]: 111 µM; selectivity ratio [4]: 3.76; EC50 [5]: 29.6 µM
7 | 3780 nM | O=C(/C=C/c1cc(O)ccc1O)c1ccc(O)cc1O | 
8 | 3220 nM | COc1cccc(CC(NC(=O)CCCC[C@]23CCC(C)(C)C[C@H]2C2=CC[C@@H]4[C@@]5(C)CC[C@H](O)C(C)(C)[C@@H]5CC[C@@]4(C)[C@]2(C)CC3)C(=O)O)c1OC (mixture of isomers) | 
9 | 550 nM | O=C(/C=C/c1ccc(O)c(O)c1)O[C@H](Cc1ccc(O)c(O)c1)C(=O)O [ROSMARINIC ACID] | 

The remaining lines, values behind:

Row | Structure (SMILES) | IC50 [1] | also measured
10 | O=C(/C=C/c1ccccc1O)c1ccc(O)c(O)c1 | 3670 nM | 
11 | CC1(C)CC[C@]2(C(=O)O)CC[C@]3(C)C(=CC[C@@H]4[C@@]5(C)CC[C@H](OCc6ccccc6)C(C)(C)[C@@H]5CC[C@]43C)[C@@H]2C1 | 700 nM | 
12 | Cc1nc2ccccc2c(-c2cc(F)c3c(c2C)CCCO3)c1[C@H](OC(C)(C)C)C(=O)O | 19 nM | 
13 | CC1(C)CC[C@]2(C(=O)O)CC[C@]3(C)C(=CC[C@@H]4[C@@]5(C)CC[C@H](OC(=O)CC(C)(C)C(=O)O)C(C)(C)[C@@H]5CC[C@]43C)[C@@H]2C1 | 5510 nM | 
14 | O=C(/C=C/c1ccccc1O)c1cccc(O)c1O | 1610 nM | 
15 | Cc1cn([C@H]2C[C@H](N=[N+]=[N-])[C@@H](CO)O2)c(=O)[nH]c1=O [ZIDOVUDINE] |  | selectivity ratio [4]: 473000; EC50 [5]: 0.0087 µM
16 | O=C(/C=C/c1ccccc1O)c1c(O)cc(O)cc1O | 6210 nM | 
17 | O=C(/C=C/c1ccccc1Cl)c1ccc(O)cc1O | 320 nM | inhibition [6]: Active; CC50 at 72 h [3]: 8.83 µM; selectivity ratio [4]: 4.88; EC50 [5]: 1.81 µM
18 | CC1(C)CC[C@]2(C(=O)O)CC[C@]3(C)C(=CC[C@@H]4[C@@]5(C)CC[C@H](OC(=O)C(=O)O)C(C)(C)[C@@H]5CC[C@]43C)[C@@H]2C1 | 9940 nM | 
19 | CC1(C)CC[C@]2(CCCCC(=O)NC(Cc3ccccc3Cl)C(=O)O)CC[C@]3(C)C(=CC[C@@H]4[C@@]5(C)CC[C@H](O)C(C)(C)[C@@H]5CC[C@]43C)[C@@H]2C1 (mixture of isomers) | 650 nM | inhibition [7]: Active; CC50 at 72 h [3]: 77.5 µM; selectivity ratio [4]: 2.12; EC50 [5]: 36.6 µM
20 | COc1ccccc1CC(NC(=O)CCCC[C@]12CCC(C)(C)C[C@H]1C1=CC[C@@H]3[C@@]4(C)CC[C@H](O)C(C)(C)[C@@H]4CC[C@@]3(C)[C@]1(C)CC2)C(=O)O (mixture of isomers) | 4560 nM | 
21 | CCOc1cc(/C=C2\SC(=O)N(CC(=O)c3ccccc3)C2=O)c(Br)cc1OCc1ccc(C(=O)O)cc1 |  | inhibition [8]: Active
